These are literature values, as cited in patent publication US6126939A, “Anti-inflammatory dipeptide and pharmaceutical composition thereof” (Yeda Research and Development Co. Ltd., priority 1997, dated 2000).

One data set concerns macrophage migration. To be noted: literature.
For data set [1] the following is noted: in vitro test assay.
The subject of the next data set is blood sugar levels. The note with it: rats, i.p. 100 mg/kg.
In another data set the test system is IL-1. The note with it: literature.

With `COc1ccc2c(C(=S)N(C)CC(=O)O)cccc2c1C(F)(F)F` [Tolrestat], the macrophage migration entry in the data set with macrophage migration is given as “Another MIF”.
Regarding Arg-Asn, the antilipolytic activity result in data set [1] is given as “no significant antilipolytic activity”. For the same molecule, the “hypoglycemic activity (lowering of blood sugar levels)” value in the data set with blood sugar levels is “having hypoglycemic activity”.
Turning to Arg-Asn-NH2, the antilipolytic activity entry in data set [1] was “have antilipolytic activity”. In the data set with blood sugar levels, the “hypoglycemic activity (lowering of blood sugar levels)” value is “having hypoglycemic activity”.
For the molecule Asn-Arg-NH2, in data set [1], the antilipolytic activity entry is listed as “have antilipolytic activity”. In addition, the “hypoglycemic activity (lowering of blood sugar levels)” value with blood sugar levels is recorded as “having hypoglycemic activity”.
On to Gln-Arg-NH2, for which the antilipolytic activity result in data set [1] was “have antilipolytic activity”. For the same molecule, the “hypoglycemic activity (lowering of blood sugar levels)” value with blood sugar levels was “having hypoglycemic activity”.
In the case of Gln-Arg-OMe, in data set [1], the antilipolytic activity entry is reported as “no significant antilipolytic activity”. In addition, in the data set on blood sugar levels, the “hypoglycemic activity (lowering of blood sugar levels)” value is on record as “having hypoglycemic activity”.
Take Glu-Arg-NH2: in data set [1], the antilipolytic activity entry is on record as “have antilipolytic activity”. The “hypoglycemic activity (lowering of blood sugar levels)” value in the data set with blood sugar levels is recorded as “did not significantly lower blood sugar levels”.
On to Glu-Arg-OMe, for which the antilipolytic activity result in data set [1] is recorded as “have antilipolytic activity”. Moreover, the “hypoglycemic activity (lowering of blood sugar levels)” value in the data set on blood sugar levels was “having hypoglycemic activity”.
In the case of Thr-Lys-Pro [TKP], the “secretion of IL-1 macrophages” value in the data set with IL-1 was “reduce secretion of IL-1”. The macrophage migration entry in the data set with macrophage migration was “inhibit macrophage migration”.
